Values quoted from earlier work, collected in patent publication US20240299501A1, “COMPOSITION AND METHODS OF TREATMENT USING TRANSDERMAL HORMONE SUPPLEMENTATION” (Xygenyx Inc., priority 2023, published 2024).

Experiments:
[1] = single penetration enhancer
[2] = test system: wide dynamic range neurons in the ventroposterolateral nucleus of the thalamus; conditions: stated as 'is believed'
[3] = in the human body

| Compound | increase of drug uptake via the transdermal route (factor) [1] | other results |
| --- | --- | --- |
| CC12CCC(CC1)C(C)(C)O2 [eucalyptol, 1,8-epoxy-p-menthane] | more than 10 |  |
| CC(C)[C@@H]1CC[C@@H](C)C[C@H]1O [Menthol] | ≥ 10 |  |
| CCCCCc1cc(O)c2c(c1)OC(C)(C)C1CCC(C)=CC21 (stereo not shown) [THC, Δ-9-tetrahydrocannabinol] |  | potency relative to morphine in mediating pain [2]: ten times more powerful than morphine |
| HGH: hormone comprising a peptide chain that is synthesized in the pituitary gland |  | biological half-life [3]: 10-20 minutes |
